Measurements taken from patent US8901118B2, “Compounds and methods for kinase modulation, and indications therefor” (Plexxikon Inc., priority 2010, dated 2014).

Tests used:
BCR-FMS BaF3 cells = test: Splenomegaly mouse model, BCR-FMS BaF3 cells; assay type: in vivo; settings: dosed once per day at 10 mg per kg
Summary of the method: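 Female nu/nu mice given 5×10^6 engineered BaF3 cells i.v. on day 1; compound in 1.0% Polysorbate 80/0.5% HPMC/2.5% DMSO dosed orally once (sometimes twice) daily, days 10-18. Spleens weighed 4 h after final dose; % spleen growth inhibition calculated versus vehicle control.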

BCR-TRK1 BaF3 cells = test: Splenomegaly mouse model, BCR-TRK1 BaF3 cells; assay type: in vivo; settings: dosed once per day at 10 mg per kg
Procedure: BaF3 cells are engineered with any of BCR-FMS, BCR-TRK1 or BCR-TRK2 to assess in vivo inhibitory effects of Fms, TrkA or TrkB inhibition, respectively. BaF3 cells are maintained in growth media (RPMI containing 10% FBS, 1% PenStrep, 1% NEAA, and 1% L-Glutamine, supplemented with 5% murine IL-3 and 1 mg/mL G418). Four days prior to start, 2×10^6 cells are inoculated into a T150 vented flask using the growth media and incubated at 37° C. in 5% CO2 for three days. One day prior to start, cells are collected by centrifugation and are suspended in growth media without IL-3. On the day of cell implant, the cells are collected by centrifugation, rinsed 3×20 mL with RPMI, then are suspended in 5.4 mL of media and counted, then adjusted with additional RPMI as needed to give 5×10^7 cells/mL. On day 1, female nu/nu mice at 5-6 weeks of age are injected intravenously with BaF3 cells injected injecting 0.1 mL (5×10^6) cells in the tail vein (mice without cell injected are included as control group). Compound stocks in dimethylsulfoxide are stored at room temperature protected from light. Stocks are diluted prior to dosing, diluting 22 μL of compound stock into 858 μL of diluent (or 50 μL into 1950 μL) to provide vehicle of 1.0% Polysorbate 80, 0.5% hydroxypropyl methyl cellulose, with final dimethylsulfoxide at 2.5% in all dosing suspensions and vehicle control. Dosing suspension is prepared prior to use, mixing by inversion and sonication in a water bath to make a uniform suspension. On days 10-18, mice are treated with vehicle only or the desired level of compound in vehicle, ˜0.2 mL per 25 gm mouse, once a day by oral gavage, or in some instances, twice per day. On day 18, mice are administered a final dose and two hours later a plasma sample is taken. At four hours following the final dose, mice are sacrificed, an additional plasma sample is collected and mouse spleens are removed and weighed. […] Percent spleen growth inhibition is calculated as 100×[(spleen weight vehicle control-spleen weight test compound)/spleen weight vehicle control]. […]

[1] = Relative solubility by turbidity in aqueous buffers (pH 1.5, 4.5, 6.8, 7.4); assay type: physicochemical
Summary of the method: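 Reported value: concentration at which optical density at 490, 535 and 650 nm passes 0.01, taken as the mean of the three wavelengths. Buffers were 0.5M NaCl pH 1.5, 0.05M NaH2PO4 pH 4.5 or 6.8, and 10 mM HEPES/150 mM NaCl pH 7.4, each receiving serial 1:1 DMSO dilutions of a 25 mM stock.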

BCR-TRK2 BaF3 cells = test: Splenomegaly mouse model, BCR-TRK2 BaF3 cells; assay type: in vivo; settings: dosed once per day at 10 mg per kg
Procedure: BaF3 cells are engineered with any of BCR-FMS, BCR-TRK1 or BCR-TRK2 to assess in vivo inhibitory effects of Fms, TrkA or TrkB inhibition, respectively. BaF3 cells are maintained in growth media (RPMI containing 10% FBS, 1% PenStrep, 1% NEAA, and 1% L-Glutamine, supplemented with 5% murine IL-3 and 1 mg/mL G418). Four days prior to start, 2×10^6 cells are inoculated into a T150 vented flask using the growth media and incubated at 37° C. in 5% CO2 for three days. One day prior to start, cells are collected by centrifugation and are suspended in growth media without IL-3. On the day of cell implant, the cells are collected by centrifugation, rinsed 3×20 mL with RPMI, then are suspended in 5.4 mL of media and counted, then adjusted with additional RPMI as needed to give 5×10^7 cells/mL. On day 1, female nu/nu mice at 5-6 weeks of age are injected intravenously with BaF3 cells injected injecting 0.1 mL (5×10^6) cells in the tail vein (mice without cell injected are included as control group). Compound stocks in dimethylsulfoxide are stored at room temperature protected from light. Stocks are diluted prior to dosing, diluting 22 μL of compound stock into 858 μL of diluent (or 50 μL into 1950 μL) to provide vehicle of 1.0% Polysorbate 80, 0.5% hydroxypropyl methyl cellulose, with final dimethylsulfoxide at 2.5% in all dosing suspensions and vehicle control. Dosing suspension is prepared prior to use, mixing by inversion and sonication in a water bath to make a uniform suspension. On days 10-18, mice are treated with vehicle only or the desired level of compound in vehicle, ˜0.2 mL per 25 gm mouse, once a day by oral gavage, or in some instances, twice per day. On day 18, mice are administered a final dose and two hours later a plasma sample is taken. At four hours following the final dose, mice are sacrificed, an additional plasma sample is collected and mouse spleens are removed and weighed. The average spleen weight of vehicle control group mice is compared to the average spleen weight of the test compound mice. Percent spleen growth inhibition is calculated as 100×[(spleen weight vehicle control-spleen weight test compound)/spleen weight vehicle control]. In some instances, the compounds were not tested in all of the assays as indicated by NA in the table below.

## CCOc1ccc(Nc2ccc(Cc3c[nH]c4ncnc(OC)c34)c(F)n2)cn1 [Compound P-4005, (6-Ethoxy-pyridin-3-yl)-[6-fluoro-5-(4-methoxy-7H-pyrrolo[2,3-d]pyrimidin-5-ylmethyl)-pyridin-2-yl]-amine]
BCR-FMS BaF3 cells
  % spleen growth inhibition, Fms: 65%
BCR-TRK1 BaF3 cells
  % spleen growth inhibition, TrkA: 25%
[1]; pH 1.5 (SGF)
  turbidity threshold (L, M, H) 1.4: M (moderate solubility if the threshold concentration is 31.3 μM to 250 μM)
[1]; pH 4.5 (SIF)
  turbidity threshold (L, M, H) 4.5: L (low solubility if the threshold concentration is <31.3 μM)
[1]; pH 6.8 (SIF)
  turbidity threshold (L, M, H) 6.8: L (low solubility if the threshold concentration is <31.3 μM)
[1]; pH 7.4 (HEPES)
  turbidity threshold (L, M, H) 7.4: L (low solubility if the threshold concentration is <31.3 μM)
BCR-TRK2 BaF3 cells
  % spleen growth inhibition, TrkB: 35%
